PubChem BioAssay AID248 (DTP/NCI, 2004)
“And” between values parts separate entries of the source, which are not always exact repeats. Identical values can stand only once. Toxic doses and inconclusive results are not listed. No stated cut-off is given here; in the data, active means T/C of 150% or more; inactive means T/C below 125%.

System: L1210 leukemia ip in BDF1 mice, survival T/C
Assay: NCI In Vivo Anticancer Drug Screen. Data for tumor model L1210 Leukemia (intraperitoneal) in B6D2F1 (BDF1) mice
Settings: endpoint: mean survival time, higher = longer survival
Outline: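 Antitumor effect is assessed in tumor-bearing animals. Survival in the compound arm is compared with a vehicle-dosed control arm and expressed as their quotient.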

[1] = dose: 100.0 mg/kg/injection, schedule: Q01DX001 (ip), vehicle: Klucel (hydroxypropylcellulose) (HPC)
[2] = dose: 200.0 mg/kg/injection, schedule: Q01DX001 (ip), vehicle: Klucel (hydroxypropylcellulose) (HPC)
[3] = dose: 100.0 mg/kg/injection, schedule: Q04DX003 (ip), vehicle: saline with Tween-80
[4] = dose: 200.0 mg/kg/injection, schedule: Q04DX003 (ip), vehicle: saline with Tween-80
[5] = dose: 400.0 mg/kg/injection, schedule: Q04DX003 (ip), vehicle: saline with Tween-80
[6] = dose: 100.0 mg/kg/injection, schedule: Q01DX009 (ip), vehicle: saline with Tween-80
[7] = dose: 200.0 mg/kg/injection, schedule: Q01DX009 (ip), vehicle: saline with Tween-80
[8] = dose: 400.0 mg/kg/injection, schedule: Q01DX009 (ip), vehicle: saline with Tween-80
[9] = dose: 50.0 mg/kg/injection, schedule: Q01DX009 (ip), vehicle: saline with Tween-80
[10] = dose: 100.0 mg/kg/injection, schedule: Q01DX009 (ip), vehicle: Klucel (hydroxypropylcellulose) (HPC)
[11] = dose: 100.0 mg/kg/injection, schedule: Q04DX003 (ip), vehicle: Klucel (hydroxypropylcellulose) (HPC)
[12] = dose: 200.0 mg/kg/injection, schedule: Q04DX003 (ip), vehicle: Klucel (hydroxypropylcellulose) (HPC)
[13] = dose: 400.0 mg/kg/injection, schedule: Q04DX003 (ip), vehicle: Klucel (hydroxypropylcellulose) (HPC)
[14] = dose: 50.0 mg/kg/injection, schedule: Q01DX009 (ip), vehicle: Klucel (hydroxypropylcellulose) (HPC)
[15] = dose: 25.0 mg/kg/injection, schedule: Q01DX009 (ip), vehicle: saline with Tween-80
[16] = dose: 25.0 mg/kg/injection, schedule: Q04DX003 (ip), vehicle: saline with Tween-80
[17] = dose: 50.0 mg/kg/injection, schedule: Q04DX003 (ip), vehicle: saline with Tween-80
[18] = dose: 25.0 mg/kg/injection, schedule: Q01DX009 (ip), vehicle: Klucel (hydroxypropylcellulose) (HPC)

Measured: T/C

CCC/C=C(\C)CCCC
inactive: dose: 100.0 mg/kg/injection, schedule: Q01DX001 (ip), vehicle: saline 97 % of control | dose: 200.0 mg/kg/injection, schedule: Q01DX001 (ip), vehicle: saline 99 % of control | dose: 400.0 mg/kg/injection, schedule: Q01DX001 (ip), vehicle: saline 95 % of control

CC(C)(C)C1=CC(=O)N2CC=CCC2(C#N)C1=O (centres undefined)
inactive: dose: 50.0 mg/kg/injection, schedule: Q01DX001 (ip), vehicle: Klucel (hydroxypropylcellulose) (HPC) 99 % of control | [1] 99 % of control | [2] 99 % of control

C#CCI
inactive: dose: 37.5 mg/kg/injection, schedule: Q04DX003 (ip), vehicle: Klucel (hydroxypropylcellulose) (HPC) 108 % of control | dose: 75.0 mg/kg/injection, schedule: Q04DX003 (ip), vehicle: Klucel (hydroxypropylcellulose) (HPC) 100 % of control | dose: 150.0 mg/kg/injection, schedule: Q04DX003 (ip), vehicle: Klucel (hydroxypropylcellulose) (HPC) 103 % of control

Cn1ccc2cc(Br)ccc21
inactive: [3] 102 % of control | [4] 101 % of control | [5] 101 % of control

c1csc(-c2nc3ccccc3s2)c1
inactive: [6] 98 % of control | [3] 101 % of control | [7] 100 % of control | [4] 98 % of control | [8] 94 % of control | [5] 93 % of control

CC(Oc1ccccc1)C(=O)NC(=S)Nc1cccc2ccccc12 (centres undefined)
inactive: [9] 90 % of control and 91 % of control | dose: 100.0 mg/kg/injection, schedule: Q01DX001 (ip), vehicle: saline with Tween-80 108 % of control | [6] 100 % of control and 86 % of control | dose: 100.0 mg/kg/injection, schedule: Q04DX002 (ip), vehicle: saline with Tween-80 108 % of control and 114 % of control | [3] 108 % of control | dose: 200.0 mg/kg/injection, schedule: Q01DX001 (ip), vehicle: saline with Tween-80 95 % of control | dose: 200.0 mg/kg/injection, schedule: Q04DX002 (ip), vehicle: saline with Tween-80 93 % of control and 105 % of control | [4] 92 % of control | dose: 400.0 mg/kg/injection, schedule: Q01DX001 (ip), vehicle: saline with Tween-80 93 % of control | dose: 400.0 mg/kg/injection, schedule: Q04DX002 (ip), vehicle: saline with Tween-80 93 % of control and 88 % of control | [5] 92 % of control

O=C1C=CC(=O)N1CCCCN1C(=O)C=CC1=O
inactive: dose: 11.1 mg/kg/injection, schedule: Q01DX Z (ip), vehicle: methylcellulose (MC) 96 % of control | dose: 16.6 mg/kg/injection, schedule: Q01DX Z (ip), vehicle: methylcellulose (MC) 106 % of control | dose: 25.0 mg/kg/injection, schedule: Q01DX Z (ip), vehicle: methylcellulose (MC) 93 % of control

Cc1c(-c2ccc(Cl)cc2)nc2cc(Cl)ccc2c1C(=O)O
inactive: dose: 100.0 mg/kg/injection, schedule: Q01DX005 (ip), vehicle: saline 107 % of control | dose: 100.0 mg/kg/injection, schedule: Q01DX009 (ip), vehicle: saline 100 % of control | dose: 200.0 mg/kg/injection, schedule: Q01DX005 (ip), vehicle: saline 93 % of control | dose: 200.0 mg/kg/injection, schedule: Q01DX009 (ip), vehicle: saline 103 % of control | dose: 400.0 mg/kg/injection, schedule: Q01DX005 (ip), vehicle: saline 91 % of control

O=C(/C=C/c1ccccc1)Nc1ccc(Cl)cc1C(=O)c1ccccc1
inactive: [10] 102 % of control | dose: 200.0 mg/kg/injection, schedule: Q01DX009 (ip), vehicle: Klucel (hydroxypropylcellulose) (HPC) 97 % of control | dose: 400.0 mg/kg/injection, schedule: Q01DX009 (ip), vehicle: Klucel (hydroxypropylcellulose) (HPC) 94 % of control

COC(=O)C1C2CCC3C2C(C)(C)CCCC31C (centres undefined)
inactive: [11] 98 % of control | [12] 106 % of control | [13] 103 % of control

O=C(O)c1ccc2c(c1)NC(c1cccc3ccccc13)NC2=O (centres undefined)
inactive: [14] 93 % of control | [10] 94 % of control | dose: 150.0 mg/kg/injection, schedule: Q01DX009 (ip), vehicle: Klucel (hydroxypropylcellulose) (HPC) 96 % of control

NNc1cccc(C(F)(F)F)c1
inactive: [15] 94 % of control | [16] 100 % of control | [9] 96 % of control | [17] 95 % of control | [3] 95 % of control and 98 % of control

Cc1cc(C)c(NC(=O)c2ccccc2Cl)c(C)c1
inactive: [6] 93 % of control | [7] 93 % of control | [8] 97 % of control

COC(=O)C(c1ccccc1)C(O)c1ccccc1 (centres undefined)
inactive: dose: 55.0 mg/kg/injection, schedule: Q01DX Z (ip), vehicle: methylcellulose (MC) 113 % of control | dose: 83.0 mg/kg/injection, schedule: Q01DX Z (ip), vehicle: methylcellulose (MC) 94 % of control | dose: 125.0 mg/kg/injection, schedule: Q01DX Z (ip), vehicle: methylcellulose (MC) 93 % of control

N=C(c1ccccc1)C1SCCCS1
inactive: [11] 103 % of control | [12] 97 % of control | [13] 97 % of control

Cc1cnc(-n2nc(-c3ccccc3)cc2-c2ccccc2)nc1-c1ccccc1O
inactive: dose: 12.5 mg/kg/injection, schedule: Q01DX009 (ip), vehicle: Klucel (hydroxypropylcellulose) (HPC) 87 % of control | [18] 91 % of control | [14] 97 % of control and 92 % of control

CC1C(C)(C)P(=O)(Oc2ccc3ccccc3c2)C1(C)C (centres undefined)
inactive: [3] 100 % of control | [4] 97 % of control | [5] 92 % of control

CCOC(=O)NC(CCN(C)C)(c1cccc2ccccc12)C(C)C (centres undefined)
inactive: dose: 50.0 mg/kg/injection, schedule: Q04DX002 (ip), vehicle: Klucel (hydroxypropylcellulose) (HPC) 100 % of control | [10] 101 % of control | dose: 100.0 mg/kg/injection, schedule: Q04DX002 (ip), vehicle: Klucel (hydroxypropylcellulose) (HPC) 100 % of control

CN1CCCC1=O
inactive: [9] 91 % of control | [6] 88 % of control | [7] 102 % of control

CCOc1ccc(NC(=O)Nc2ccccc2Cl)cc1
inactive: dose: 6.0 mg/kg/injection, schedule: Q01DX009 (ip), vehicle: Klucel (hydroxypropylcellulose) (HPC) 93 % of control | dose: 12.0 mg/kg/injection, schedule: Q01DX009 (ip), vehicle: Klucel (hydroxypropylcellulose) (HPC) 88 % of control | [18] 97 % of control | dose: 25.0 mg/kg/injection, schedule: Q01DX009 (ip), vehicle: gum acacia 89 % of control | dose: 200.0 mg/kg/injection, schedule: Q01DX009 (ip), vehicle: gum acacia 91 % of control | dose: 200.0 mg/kg/injection, schedule: Q04DX003 (ip), vehicle: gum acacia 92 % of control | dose: 400.0 mg/kg/injection, schedule: Q04DX003 (ip), vehicle: gum acacia 90 % of control

CCCN1CSC(=S)N(Cc2ccccc2)C1
inactive: [3] 95 % of control | [4] 93 % of control | [5] 90 % of control

CCCN(CCC)C(=O)c1cccnc1
inactive: [3] 93 % of control | [4] 96 % of control | [5] 94 % of control

N#CC1(C#N)C2C=CC(C3C(Cl)C=CC32)C1(C#N)C#N (centres undefined)
inactive: dose: 12.5 mg/kg/injection, schedule: Q01DX009 (ip), vehicle: saline with Tween-80 87 % of control | dose: 12.5 mg/kg/injection, schedule: Q04DX003 (ip), vehicle: saline with Tween-80 96 % of control | [15] 89 % of control | [16] 94 % of control | [17] 97 % of control

Cc1nnc(C(N)=O)c(=O)[nH]1
inactive: [1] 109 % of control | [2] 120 % of control | dose: 400.0 mg/kg/injection, schedule: Q01DX001 (ip), vehicle: Klucel (hydroxypropylcellulose) (HPC) 97 % of control

OC(Nc1ncccn1)C(Cl)(Cl)Cl (centres undefined)
inactive: dose: 100.0 mg/kg/injection, schedule: Q01DX009 (ip), vehicle: saline sonified 96 % of control | [11] 95 % of control | dose: 200.0 mg/kg/injection, schedule: Q01DX009 (ip), vehicle: saline sonified 94 % of control | [12] 102 % of control | dose: 400.0 mg/kg/injection, schedule: Q01DX009 (ip), vehicle: saline sonified 89 % of control | [13] 101 % of control
